In patent US9133232B2, “Fused pentacyclic polyethers” (priority 2003, dated 2015):
Like-named read-outs stand apart in the source and are kept apart here.

Assays:
Male mosquito fish = type: in vivo; settings: for death of fish exposed to brevenal alone: monitored 24 h
Protocol: Male mosquito fish (n=104) were used in this assay. Fish were placed individually in 50 mL beakers containing 20 mL water. The test compounds (PbTx-2 and brevenal) were dissolved in EtOH at a concentration of 0.1 mg/mL and added to the fish in a total of 200 μL EtOH. The control fish received 200 uL EtOH. Fish were exposed to toxin alone (1 μg/mL water), brevenal alone (1 or 2 μg/mL water), or both brevenal (1.0 μg/mL water and toxin (1.0 μg/mL water) with the brevenal being added 3 min. before the toxin. After addition of the difference compounds the fish were monitored for 24 h. or until the time of death. Significant differences were determined using a two-way Student's t-test.

rat brain synaptosome = experiment: Competitive rat brain synaptosome assay (displacement of tritiated brevetoxin PbTx-2); type: binding; settings: for Ki / EC50: competition with tritiated PbTx-2; for EC50: read-out: approximate EC50; for displacement of tritiated brevetoxin PbTx-2: compound added at about 1000× the concentration of the tritiated PbTx-2
Protocol: Competitive rat brain synaptosome assays were performed as described in Poli et al., 1986. […];

**Q.** How did the “time of death after exposure, fish given brevenal and PbTx-2” value (Male mosquito fish; brevenal 1.0 μg/mL water added 3 min. before PbTx-2 1.0 μg/mL water) turn out when `C=C/C=C\CC[C@H]1O[C@H]2CC[C@@]3(C)O[C@H]4[C@@H](O)C[C@@]5(C)O[C@@H](CC/C=C(C)/C(C)=C/C=O)[C@@H](C)C[C@@H]5O[C@@H]4C[C@@H]3O[C@@H]2CC[C@@]1(C)O` [brevenal] was run?
**A.** Its value is “about 17 min”.

**Q.** What about the “prolonging of life versus PbTx-2 only” value (Male mosquito fish; brevenal 1.0 μg/mL water added 3 min. before an equal concentration of PbTx-2) of the same compound?
**A.** The value was roughly 2.5 fold.

**Q.** What about the “death of fish exposed to brevenal alone” value (Male mosquito fish; brevenal alone 1 μg/ml water) of the same compound?
**A.** Its value is “did not die after 24 h”.

**Q.** What about the “death of fish exposed to brevenal alone” value (Male mosquito fish; brevenal alone 2 μg/ml water) of the same compound?
**A.** The value was “did not die after 24 h”.

**Q.** What about the Ki (rat brain synaptosome) of the same compound?
**A.** The Ki was 1860 nM.

**Q.** What about the EC50 (rat brain synaptosome) of the same compound?
**A.** The EC50 was roughly 3690 nM.

**Q.** And the “displacement of tritiated brevetoxin PbTx-2” value (rat brain synaptosome)?
**A.** The value was roughly 80%.

**Q.** For di-O-Me brevenal, which Ki (rat brain synaptosome) is on record?
**A.** Its Ki is 680 nM.

**Q.** And the EC50 (rat brain synaptosome)?
**A.** The EC50 was roughly 1350 nM.

**Q.** And the “displacement of tritiated brevetoxin PbTx-2” value (rat brain synaptosome)?
**A.** The value was roughly 80%.
